Consider two molecules from ChEMBL document CHEMBL1123834, “Isozyme-specific enzyme inhibitors. 14. 5'(R)-C-[(L-homocystein-S-yl)methyl]adenosine 5'-(beta,gamma-imidotriphosphate), a potent inhibitor of rat methionine adenosyltransferases” (J Med Chem, 1987).

What all share (assay type): protein assay
The target of experiment [1] is T1, S-adenosylmethionine synthetase (MAT 1 and MAT 2) (Rattus norvegicus, UniProt P13444+P18298). In words: Inhibition constants of M-2 Forms of rat methionine adenosyltransferase using ATP as the variable substrate; Inhibition is competitive type.
In experiment [2] the target is T1, S-adenosylmethionine synthetase (MAT 1 and MAT 2). In words: Inhibition constants of MT Forms of rat Novikoff Ascitic Hepatomae using Methionine as the variable substrate; Inhibition is non competitive inhibition.
For experiment [3] the target is unchanged. In words: Inhibition constants of MT Forms of rat Novikoff Ascitic Hepatomae using ATP as the variable substrate; Inhibition is competitive type.
Experiment [4] shares this target. Briefly: Inhibition constants of M-2 Forms of rat methionine adenosyltransferase using Methionine as the variable substrate; Inhibition is competitive type.
Experiment [5] shares this target. In words: Inhibition constants of M-2 Forms of rat methionine adenosyltransferase using Methionine as the variable substrate; Inhibition is non competitive type.
The target is the same in experiment [6]. Briefly: Inhibition constants of MT Forms of rat Novikoff Ascitic Hepatomae using Methionine as the variable substrate; Inhibition is non competitive type.

The term Ki denotes a measure of affinity in units of concentration, obtained from inhibition or displacement. The low end stands for higher affinity, the high end for lower affinity. For `NC(CCSC(CP(=O)(O)OP(=O)(O)NP(=O)(O)O)[C@H]1O[C@@H](n2cnc3c2NC=NC3N)[C@H](O)[C@@H]1O)C(=O)O` (stereo partly drawn), the Ki was determined as 16 µM in experiment [1], 38 µM in experiment [2], 11 µM in experiment [3] and 26 µM in experiment [4].
`NC(CCS[C@@H](CNP(=O)(O)OP(=O)(O)OP(=O)(O)O)[C@H]1OC(n2cnc3c2NC=NC3N)[C@H](O)[C@@H]1O)C(=O)O` (stereo partly drawn): the Ki in experiment [1] was determined as 0.36 µM; in experiment [5] it was 3 µM; in experiment [3] it was 0.27 µM; in experiment [6], 2.3 µM.
